This is an account of results in ChEMBL document CHEMBL3886540, “Orally available viridiofungin derivative possessing anti-HCV activity” (2016).

Data set [1] has as its target T1, Cytochrome P450 2C9 (Homo sapiens, UniProt P11712). The data set can be described thus: (§1) CYP Inhibition Assay (With Preincubation): With Preincubation: To a 96 deep well plate was added 2.5 uL of the test substance solution (x200 concentration), and 442.5 uL of Incubation Mixture, and the solution was mixed and warmed to 37° C. for 5 minutes. To this incubation solution 50 uL of 10 mM NADPH was added and preincubated at 37° C. for 30 minutes. […] After the reaction, 100 uL of the Incubation Mixture was removed, added to 150 uL of isopropanol containing IS and mixed. […] The filtrate was used for LC-MS/MS analysis.

The target in data set [2] is T2, Cytochrome P450 3A4 (Homo sapiens, UniProt P08684). The description is as §1.
T2 sequence (P08684 whole entry): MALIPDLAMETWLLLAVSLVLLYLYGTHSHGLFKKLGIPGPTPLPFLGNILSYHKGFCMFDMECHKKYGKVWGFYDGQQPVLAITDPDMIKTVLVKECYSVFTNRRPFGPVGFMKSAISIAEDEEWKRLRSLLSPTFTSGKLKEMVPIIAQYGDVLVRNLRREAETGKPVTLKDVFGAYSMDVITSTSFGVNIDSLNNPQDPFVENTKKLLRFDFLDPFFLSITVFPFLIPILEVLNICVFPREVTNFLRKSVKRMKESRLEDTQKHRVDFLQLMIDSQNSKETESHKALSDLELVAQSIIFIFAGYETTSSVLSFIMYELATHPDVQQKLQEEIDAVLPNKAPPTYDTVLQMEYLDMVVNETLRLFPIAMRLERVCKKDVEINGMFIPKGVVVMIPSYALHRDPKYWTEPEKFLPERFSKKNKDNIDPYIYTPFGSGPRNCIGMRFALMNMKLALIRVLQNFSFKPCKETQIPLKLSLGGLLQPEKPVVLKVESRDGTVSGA
The target in data set [3] is T1, Cytochrome P450 2C9. The data set can be described thus: (§2) CYP Inhibition Assay (Without Preincubation): Without Preincubation: To a 96 deep well plate was added 2.5 uL, of the test substance solution (x200 concentration), 442.5 uL of Incubation Mixture, and 5 uL of the substrate solution, and the solution was mixed and warmed to 37° C. for 5 minutes. To this incubation solution 50 uL of 10 mM NADPH was added to start the reaction, and incubated at 37° C. for 5 minutes. After the incubation, 100 uL of the Incubation Mixture was removed, added to 150 uL of isopropanol containing IS and mixed. […] The filtrate was used for LC-MS/MS analysis.

For data set [4], the target named is T2, Cytochrome P450 3A4. The data set is described as §2.

Broadly, the IC50 is the concentration at which inhibition is half-maximal.

T1 sequence (P11712 whole entry): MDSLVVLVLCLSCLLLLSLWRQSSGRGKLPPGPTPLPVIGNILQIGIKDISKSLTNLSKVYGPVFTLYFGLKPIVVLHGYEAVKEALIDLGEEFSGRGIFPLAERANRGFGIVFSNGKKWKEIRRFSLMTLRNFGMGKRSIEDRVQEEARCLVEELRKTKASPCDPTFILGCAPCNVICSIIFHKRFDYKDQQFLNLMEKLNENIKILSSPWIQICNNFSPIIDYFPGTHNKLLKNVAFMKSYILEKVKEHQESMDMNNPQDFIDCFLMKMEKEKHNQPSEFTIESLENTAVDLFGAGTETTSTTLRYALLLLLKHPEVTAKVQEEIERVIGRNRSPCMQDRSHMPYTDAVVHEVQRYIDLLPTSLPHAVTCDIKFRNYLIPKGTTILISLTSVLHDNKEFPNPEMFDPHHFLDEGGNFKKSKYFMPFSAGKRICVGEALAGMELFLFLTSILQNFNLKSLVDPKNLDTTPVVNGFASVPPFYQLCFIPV

Regarding `CCCCCCCC(F)(F)CCCCCC/C=C/[C@H](C(O)N[C@@H](Cc1ccc(OCCCC)cc1)C(=O)OC)[C@@](O)(CCOC)C(=O)O` (stereo partly drawn), the half-maximal inhibitory concentration (IC50) was 19.6 µM at Cytochrome P450 2C9 [1], 11.9 µM on Cytochrome P450 3A4 [2], 7.7 µM at Cytochrome P450 2C9 [3] and 23.8 µM at Cytochrome P450 3A4 [4].

As to `CCCCCCCC(F)(F)CCCCCC/C=C/[C@H](C(O)N[C@@H](Cc1ccc(OCCCC)cc1)C(=O)O)[C@@](O)(CCOC)C(=O)O` (stereo partly drawn), the concentration for half-maximal inhibition (IC50) at Cytochrome P450 2C9 [1] turned out to be 24.4 µM; at Cytochrome P450 3A4 [2], 11.8 µM; on Cytochrome P450 2C9 [3] it was 12.5 µM; on Cytochrome P450 3A4 [4], 16.2 µM.
